How the values were obtained:
SUDV (Gulu) = assay type: cell-based, Sudan virus (SUDV)
EBOV (Makona) = assay type: cell-based, Ebola virus (EBOV)
MARV (Ci67) = assay type: cell-based, Marburg virus (MARV)
[1] = system: recombinant Ebola virus Makona expressing ZsGreen (rEBOV/ZsG); assay type: cell-based

SMILES	SUDV EC50 (SUDV (Gulu))	EBOV EC50 (EBOV (Makona))	MARV EC50 (MARV (Ci67))	EC50 ([1]; read-out: EBOV EC50)	fold less potent than compound 1 [1]
COc1nc(N)ncc1-c1cn(COCCO)cn1 [compound 1]	no detectable activity	no detectable activity	no detectable activity	2200 ± 300 nM	–
CCC(CC)COC(=O)[C@H](C)N[P@](=O)(OCCOCn1cnc(-c2cnc(N)nc2OC)c1)Oc1ccccc1 [compound 3]	–	–	–	–	~10 fold

From PMC5626011 (Bioorganic & Medicinal Chemistry Letters, 2017)
